In paper PMC3885546, “Structural Determinants of the 5′-Methylthioinosine Specificity of Plasmodium Purine Nucleoside Phosphorylase” (PLoS ONE, 2014):
Positions count from the first letter of the chain named.

Assays:
Experiment in all cases: Substrate kinetics, coupled assay
Type in all cases: biochemical
PfPNP Tyr47Ala = target: T1, PfPNP Tyr47Ala (Plasmodium falciparum, UniProt Q8I3X4, Y47A); details: for Km / kcat: substrate = label
T1 construct: made in house; host or cells: Escherichia coli Top 10
T1 sequence (Q8I3X4 1-245 Y47A): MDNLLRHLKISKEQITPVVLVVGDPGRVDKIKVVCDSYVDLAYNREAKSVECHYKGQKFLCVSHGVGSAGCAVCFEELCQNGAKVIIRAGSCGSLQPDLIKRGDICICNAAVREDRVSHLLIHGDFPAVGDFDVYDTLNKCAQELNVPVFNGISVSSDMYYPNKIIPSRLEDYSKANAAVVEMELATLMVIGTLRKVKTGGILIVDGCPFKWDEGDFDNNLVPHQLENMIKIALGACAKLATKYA
Method: (§1) Kinetic assays were completed in 50 mM KH2PO4 at pH 7.4 measuring phosphorylysis of inosine or MTI by PNP in a coupled reaction with 60 milliunits/ml xanthine oxidase to convert hypoxanthine to uric acid. Formation of uric acid was measured at 293 nm wavelength (E293 = 12.9 mM^−1 cm^−1), [20]. In cases where activity for MTI was low, increased protein concentration (10 µg/ml) was used to check enzyme function. Assays were performed with excess substrate in the presence of inhibitors. Inhibition studies measured both initial (Ki) and slow onset inhibition (Ki*) for inhibitors. The initial onset inhibition was analyzed by using the following equation: ν ο = (k cat×S)/(K m(1+I/Ki)+S), ν ο is the steady state rate, k cat catalytic rate, S is substrate concentration, Km is Michealis constant for inosine, I is inhibitor concentration, and Ki is the equilibrium dissociation constant.

PfPNP His7Ala = target: T2, PfPNP His7Ala (Plasmodium falciparum, UniProt Q8I3X4, H7A); details: for Km / kcat: substrate = label
T2 construct: made in house; host or cells: Escherichia coli Top 10
T2 sequence (Q8I3X4 1-245 H7A): T1 sequence (Q8I3X4 1-245 Y47A) with H7A, A47Y
Method: as §1

PfPNP His7Ser = target: T3, PfPNP His7Ser (Plasmodium falciparum, UniProt Q8I3X4, H7S); details: for Km / kcat: substrate = label
T3 construct: made in house; host or cells: Escherichia coli Top 10
T3 sequence (Q8I3X4 1-245 H7S): T1 sequence (Q8I3X4 1-245 Y47A) with H7S, A47Y
Method: as §1

PfPNP Val66Ile/Tyr160Phe = target: T4, PfPNP Val66Ile/Tyr160Phe (Plasmodium falciparum, UniProt Q8I3X4, V66I/Y160F); details: for Km / kcat: substrate = label
T4 construct: made in house; host or cells: Escherichia coli Top 10
T4 sequence (Q8I3X4 1-245 V66I/Y160F): T1 sequence (Q8I3X4 1-245 Y47A) with A47Y, V66I, Y160F
Method: as §1

PfPNP Val66Ala = target: T5, PfPNP Val66Ala (Plasmodium falciparum, UniProt Q8I3X4, V66A); details: for Km / kcat: substrate = label
T5 construct: made in house; host or cells: Escherichia coli Top 10
T5 sequence (Q8I3X4 1-245 V66A): T1 sequence (Q8I3X4 1-245 Y47A) with A47Y, V66A
Method: as §1

PfPNP His7Phe = target: T6, PfPNP His7Phe (Plasmodium falciparum, UniProt Q8I3X4, H7F); details: for Km / kcat: substrate = label
T6 construct: made in house; host or cells: Escherichia coli Top 10
T6 sequence (Q8I3X4 1-245 H7F): T1 sequence (Q8I3X4 1-245 Y47A) with H7F, A47Y
Method: as §1

PfPNP Val66Ile = target: T7, PfPNP Val66Ile (Plasmodium falciparum, UniProt Q8I3X4, V66I)
T7 construct: made in house; host or cells: Escherichia coli Top 10
T7 sequence (Q8I3X4 1-245 V66I): T1 sequence (Q8I3X4 1-245 Y47A) with A47Y, V66I
Method: as §1

PfPNP Val66Ser = target: T8, PfPNP Val66Ser (Plasmodium falciparum, UniProt Q8I3X4, V66S); details: for Km / kcat: substrate = label
T8 construct: made in house; host or cells: Escherichia coli Top 10
T8 sequence (Q8I3X4 1-245 V66S): T1 sequence (Q8I3X4 1-245 Y47A) with A47Y, V66S
Method: as §1

| Molecule | Km (PfPNP Tyr47Ala) [µM] | kcat (PfPNP Tyr47Ala) [s⁻¹] | Km (PfPNP His7Ala) [µM] | kcat (PfPNP His7Ala) [s⁻¹] | Km (PfPNP His7Ser) [µM] | kcat (PfPNP His7Ser) [s⁻¹] | Km (PfPNP Val66Ile/Tyr160Phe) [µM] | kcat (PfPNP Val66Ile/Tyr160Phe) [s⁻¹] | Km (PfPNP Val66Ala) [µM] | kcat (PfPNP Val66Ala) [s⁻¹] | Km (PfPNP His7Phe) [µM] | kcat (PfPNP His7Phe) [s⁻¹] | kcat (PfPNP Val66Ile; substrate = label) [s⁻¹] | Km (PfPNP Val66Ser) [µM] | kcat (PfPNP Val66Ser) [s⁻¹] | further results |
| --- | --- | --- | --- | --- | --- | --- | --- | --- | --- | --- | --- | --- | --- | --- | --- | --- |
| 5′-methylthioinosine | 960 | 0.02 ± 0 | 2.6 ± 2 | 0.29 ± 0.21 | 3.2 ± 2.7 | 0.88 ± 0.30 | 11 ± 2 | 0.05 ± 0.00 | 0.3 ± 0.4 | 0.12 ± 0.04 | 9.6 ± 8 | 0.21 ± 0.03 | 1.2 ± 0.7 | 0.7 ± 0.7 | 0.21 ± 0.05 | – |
| OC[C@H]1O[C@@H](n2cnc3c(O)ncnc32)[C@H](O)[C@@H]1O [Inosine, inosine] | 200 | 0.04 ± 0.00 | 45 ± 7 | 1.1 ± 0.5 | 14 ± 3 | 0.5 ± 0.3 | 6.2 ± 3.5 | 1.2 ± 0.16 | 13 ± 10 | 2.4 ± 0.6 | 353 ± 22 | 2.2 ± 0.7 | 2.0 ± 0.2 | 78 ± 4 | 1.4 ± 1.7 | Ino/MTI kcat/Km Ratio (PfPNP Tyr47Ala): 9.3; Ino/MTI kcat/Km Ratio (PfPNP His7Ala): 2.2; Ino/MTI kcat/Km Ratio (PfPNP His7Ser): 0.1; Ino/MTI kcat/Km Ratio (PfPNP Val66Ile/Tyr160Phe): 39; Ino/MTI kcat/Km Ratio (PfPNP Val66Ala): 0.5; Ino/MTI kcat/Km Ratio (PfPNP His7Phe): 0.3; Ino/MTI kcat/Km Ratio (PfPNP Val66Ile): 1.4; Km (PfPNP Val66Ile; substrate = label): 16 ± 4 µM; Ino/MTI kcat/Km Ratio (PfPNP Val66Ser): 0.06 |
